In data set [1] the test system is MCF-7 line (breast cancer). In words: Sulphorhodamine B cytotoxicity test, MCF-7 line. The note with it: for IC50 / Cytotoxic activity class, MCF-7 line (breast cancer) / Cytotoxic activity, IC50, MCF-7 line (breast cancer): 72 hours incubation, sulphorhodamine B. It counts as cell-based. On the procedure: (§1) Cytotoxic activity tests were performed using the following cancer cell lines: MCF-7 (breast cancer), HeLa (cervical cancer) A549 (pulmonary cancer) and KB (nasopharynx cancer) obtained from ECACC (European Collection of Cell Cultures). Cytotoxicity tests were carried out using a standard procedure with sulphorhodamine B. They involved incubation of the cancer cell lines in the logarithmic growth phase for 72 hours with the compound tested and, subsequently, spectrophotometric determination of the degree of cell growth inhibition using adsorption of a dye (sulphorhodamine B) which binds cellular proteins. The determination was carried out according to a procedure reported in: Vichai, V., Kirtikara, K. […] Solutions of the test compounds were prepared in DMSO in the following concentration range: 0.05; 0.1; 0.5; 1; 5; 10; 50; 100 μM. The cells of the lines tested were treated with the solutions of the test compounds in a laminar-flow chamber which ensured sterile working conditions according to the following procedure: the first three wells were used as a control: they contained 20 μL of DMSO only; successive solutions of the test compound were added to subsequent wells (20 μL), starting with the lowest concentration (three wells for each concentration level). Subsequently, the plates were placed in an incubator for 72 hours. After the end of incubation, the adhered cells were fixed by adding 500 μL of cold (4° C.) 50% trichloroacetic acid (TCA) and incubated at 4° C. for 1 hour. Subsequently, each well was rinsed with sterile water and dried. The operation was repeated five times. The fixed cells were stained for 30 minutes by adding 500 μL of 0.4% of a dye solution (sulphorhodamine B) dissolved in 1% acetic acid. […] Subsequently, the plates were dried in air for approx. 5 minutes. Any […] dye was dissolved by adding 1500 μL of […] Tris-base buffer (trishydroxymethylaminomethane) to each well and shaken using an orbital shaker for 5 minutes. […] Depending on the type of the cell line, the following growth media were used: • the MCF-7 line was grown in Dulbecco's Modified Eagle's Medium (DME) from Sigma (cat. no. […] R8758). […] Program Procedure. Instruction and technical documentation change notice, instruction 14. Screening data summary interpretation and outline of current screening. Edition NCI NIH, Bethesda Rev., 1980, 6, 31-62).

For another data set, the system named is HeLa (cervical cancer). Description: Sulphorhodamine B cytotoxicity test, HeLa line. The note with it: for IC50 / Cytotoxic activity class, HeLa (cervical cancer) / Cytotoxic activity, IC50, HeLa (cervical cancer): 72 hours incubation, sulphorhodamine B. It counts as cell-based. On the procedure:
as §1

In another data set the test system is A549 (lung cancer). Description: Sulphorhodamine B cytotoxicity test, A549 line. It counts as cell-based. The note with it: for IC50 / Cytotoxic activity class, A549 (lung cancer) / Cytotoxic activity, IC50, A549 (lung cancer): 72 hours incubation, sulphorhodamine B. On the procedure: as §1
A further data set has as its system KB (nasopharynx cancer). In words: Sulphorhodamine B cytotoxicity test, KB line. Conditions: for IC50 / Cytotoxic activity, IC50, KB (nasopharynx cancer): 72 hours incubation, sulphorhodamine B. It counts as cell-based. As for the experimental part:
Cytotoxic activity tests were performed using the following cancer cell lines: MCF-7 (breast cancer), HeLa (cervical cancer) A549 (pulmonary cancer) and KB (nasopharynx cancer) obtained from ECACC (European Collection of Cell Cultures).
Cytotoxicity tests were carried out using a standard procedure with sulphorhodamine B. They involved incubation of the cancer cell lines in the logarithmic growth phase for 72 hours with the compound tested and, subsequently, spectrophotometric determination of the degree of cell growth inhibition using adsorption of a dye (sulphorhodamine B) which binds cellular proteins. The determination was carried out according to a procedure reported in: Vichai, V., Kirtikara, K. Nature Protocols, 2006, 1, 1112.
Preparation of Cells for the Experiment:
Cancerous cells of the cell line tested in the logarithmic growth phase were seeded onto 24-well plates in a quantity of 20,000 cells/2 mL of the growth medium per well and, subsequently, incubated in an incubator at 37° C., in the 5% CO2 atmosphere for 24 hours.
Preparation of Test Compound Solutions:
Solutions of the test compounds were prepared in DMSO in the following concentration range: 0.05; 0.1; 0.5; 1; 5; 10; 50; 100 μM.
The cells of the lines tested were treated with the solutions of the test compounds in a laminar-flow chamber which ensured sterile working conditions according to the following procedure: the first three wells were used as a control: they contained 20 μL of DMSO only; successive solutions of the test compound were added to subsequent wells (20 μL), starting with the lowest concentration (three wells for each concentration level). Subsequently, the plates were placed in an incubator for 72 hours.
After the end of incubation, the adhered cells were fixed by adding 500 μL of cold (4° C.) 50% trichloroacetic acid (TCA) and incubated at 4° C. for 1 hour. Subsequently, each well was rinsed with sterile water and dried. The operation was repeated five times. The fixed cells were stained for 30 minutes by adding 500 μL of 0.4% of a dye solution (sulphorhodamine B) dissolved in 1% acetic acid. Any unbound dye was removed by decanting it from the plate, and the cells were washed 4 times with 1% acetic acid. Subsequently, the plates were dried in air for approx. 5 minutes. Any […] dye was dissolved by adding 1500 μL of […] Tris-base buffer (trishydroxymethylaminomethane) to each well and shaken using an orbital shaker for 5 minutes. Subsequently, 200 μL of solution from each well was transferred to each of two wells on a new 96-well plate and absorption of the solutions was determined spectrophotometrically at a wavelength of 490-530 nm using a plate reader.
Depending on the type of the cell line, the following growth media were used: • the MCF-7 line was grown in Dulbecco's Modified Eagle's Medium (DME) from Sigma (cat. no. D5796), • the HeLa, A549 and KB lines were grown in RPMI-1640 Medium from Sigma (cat. no. R8758).
IC50 values, denoting concentration of a compound needed to obtain 50% inhibition of cell growth, were determined for all the derivatives tested.

Data set [2] has as its system breast cancer cells (MCF-7). Conditions: in vitro; Martirosyan et al. 2004; read-out: IC50, inhibition of growth and differentiation of breast cancer cells (MCF-7); cited from earlier work.
[3] abbreviates: Homo sapiens, MCF7, average of three determinations, read-out: Cytotoxic activity, IC50, MCF-7 line (breast cancer).
The mark [4] stands for this setting: Homo sapiens, MCF7, read-out: Cytotoxic activity class, MCF-7 line (breast cancer).
The mark [5] stands for this setting: Homo sapiens, HeLa, average of three determinations, read-out: Cytotoxic activity, IC50, HeLa (cervical cancer).
[6] abbreviates: Homo sapiens, HeLa, read-out: Cytotoxic activity class, HeLa (cervical cancer).
Where [7] appears, read: Homo sapiens, A549, average of three determinations, read-out: Cytotoxic activity, IC50, A549 (lung cancer).
[8] abbreviates: Homo sapiens, A549, read-out: Cytotoxic activity class, A549 (lung cancer).
Setting [9] is: average of three determinations, read-out: Cytotoxic activity, IC50, KB (nasopharynx cancer).
The mark [10] stands for this setting: read-out: Cytotoxic activity class, KB (nasopharynx cancer).
[11] abbreviates: average of three determinations.
The mark [12] stands for this setting: average of three determinations, read-out: Cytotoxic activity, IC50, MCF-7 line (breast cancer).
Setting [13] is: average of three determinations, read-out: Cytotoxic activity, IC50, HeLa (cervical cancer).
[14] abbreviates: average of three determinations, read-out: Cytotoxic activity, IC50, A549 (lung cancer).

Where “and” joins values, the source holds several entries; their conditions need not be identical. Equal entries are not always repeated. Where two headings read alike, the source gives them in different places. A value given as a limit tells only on which side of the number the result lay.

Regarding `O=c1[nH]cc(F)c(=O)[nH]1` [5-fluorouracil, reference compound], the IC50 was 18.2 µg/mL and 140 µM in data set [1] (setting [3]); 4 to 30 µg/mL in data set [1] (setting [4]); 21 µg/mL and 161 µM in the data set on HeLa (cervical cancer) (setting [5]); 4 to 30 µg/mL in the data set on HeLa (cervical cancer) (setting [6]); 21.4 µg/mL and 165 µM in the data set on A549 (lung cancer) (setting [7]); 4 to 30 µg/mL with A549 (lung cancer) (setting [8]). Also, the IC50 is 22 µg/mL and 169 µM with KB (nasopharynx cancer) (setting [9]); 4 to 30 µg/mL in the data set on KB (nasopharynx cancer) (setting [10]).

Consider `C=C[C@H]1C[N@@]2CC[C@H]1C[C@@H]2[C@@H](O)c1ccnc2ccccc12` [cinchonine, reference compound], for which the IC50 (in data set [1] (setting [3]); with HeLa (cervical cancer) (setting [5]); in the data set on A549 (lung cancer) (setting [7]); with KB (nasopharynx cancer) (setting [9])) was above 50 µg/mL in each case.

As to `O=c1[nH]c(=O)n([C@H]2C[C@H](O)[C@@H](CO)O2)cc1F` [5-fluoro-2′-deoxyuridine, reference compound], the IC50 was 11.4 µg/mL and 46.3 µM in data set [1] (setting [3]); 4 to 30 µg/mL in data set [1] (setting [4]); 13 µg/mL and 52.8 µM in the data set on HeLa (cervical cancer) (setting [5]); 4 to 30 µg/mL in the data set with HeLa (cervical cancer) (setting [6]); 13.4 µg/mL and 54.4 µM in the data set on A549 (lung cancer) (setting [7]); 4 to 30 µg/mL with A549 (lung cancer) (setting [8]). For the same compound, the IC50 in the data set with KB (nasopharynx cancer) (setting [9]) is 13.7 µg/mL and 55.6 µM; with KB (nasopharynx cancer) (setting [10]), 4 to 30 µg/mL.

For `C=C[C@H]1C[N@@]2CC[C@H]1C[C@H]2[C@H](O)c1ccnc2ccc(OC)cc12` [quinine], in data set [2], the IC50 was 40 µM.

Consider 9-O-propargylcinchonidine [PCD], for which, in data set [1], the “Cytotoxic activity class, MCF-7 line (breast cancer)” value is reported as “(MA) (IC50 range of 4-30 μg/mL are considered medium active (abbreviated as MA))”. Further, in data set [1] (setting [11]), the “Cytotoxic activity, IC50, MCF-7 line (breast cancer)” value was 9.3 µg/mL. Moreover, the IC50 in data set [1] (setting [12]) was 28 µM; in the data set on HeLa (cervical cancer) (setting [13]), 30.1 µM; in the data set on A549 (lung cancer) (setting [14]), 48.1 µM; in the data set with KB (nasopharynx cancer) (setting [9]), 28.6 µM; in the data set on KB (nasopharynx cancer) (setting [10]), 4 to 30 µg/mL. Also, in data set [1] (PCD versus PCN, general statement, not tied to one cell line), the “reduction in cytotoxic activity on change to the opposite configuration (8S,9R)” value is “about 3 fold”. For the same compound, the “Cytotoxic activity class, HeLa (cervical cancer)” value in the data set on HeLa (cervical cancer) was “(MA) (IC50 range of 4-30 μg/mL are considered medium active (abbreviated as MA))”. Also, the “Cytotoxic activity, IC50, HeLa (cervical cancer)” value with HeLa (cervical cancer) (setting [11]) was found to be 10.0 µg/mL. The “Cytotoxic activity class, A549 (lung cancer)” value in the data set on A549 (lung cancer) was “(MA) (IC50 range of 4-30 μg/mL are considered medium active (abbreviated as MA))”. Further, the “Cytotoxic activity, IC50, A549 (lung cancer)” value in the data set on A549 (lung cancer) (setting [11]) amounted to 16.0 µg/mL. Moreover, the “Cytotoxic activity, IC50, KB (nasopharynx cancer)” value in the data set with KB (nasopharynx cancer) (setting [11]) was 9.5 µg/mL.

Regarding `C#CCO[C@@H](c1ccnc2ccccc12)[C@H]1C[C@@H]2CCN1C[C@@H]2C=C` [PCN, 9-O-propargylcinchonine], in data set [1], the “Cytotoxic activity class, MCF-7 line (breast cancer)” value was “(A) (IC50<4 μg/mL are generally assumed as active (abbreviated as A))”. For the same compound, the “Cytotoxic activity, IC50, MCF-7 line (breast cancer)” value in data set [1] (setting [11]) stood at 3.0 µg/mL. Further, the IC50 in data set [1] (setting [12]) was 9.02 µM; in the data set on HeLa (cervical cancer) (setting [13]), 10.5 µM; with A549 (lung cancer) (setting [14]), 11.7 µM; in the data set on KB (nasopharynx cancer) (setting [9]), 9.63 µM; in the data set on KB (nasopharynx cancer) (setting [10]) it was below 4 µg/mL. For the same compound, the “times as cytotoxic as 5FU” value was “more than six times” in data set [1] (MCF-7 line, ratio of IC50 to 5FU); “six times” in the data set on HeLa (cervical cancer) (HeLa line, ratio of IC50 to 5FU); “more than five times” in the data set with A549 (lung cancer) (A549 line, ratio of IC50 to 5FU). The “times as active as 5FdU” value in data set [1] (MCF-7 line, ratio of IC50 to 5FdU) stood at 3.8 times. Also, in the data set on HeLa (cervical cancer), the “Cytotoxic activity class, HeLa (cervical cancer)” value is reported as “(A) (IC50<4 μg/mL are generally assumed as active (abbreviated as A))”. Further, the “Cytotoxic activity, IC50, HeLa (cervical cancer)” value in the data set on HeLa (cervical cancer) (setting [11]) was found to be 3.5 µg/mL. Further, the “times as cytotoxic as 5FdU” value with HeLa (cervical cancer) (HeLa line, ratio of IC50 to 5FdU) is recorded as 3.7 times; with A549 (lung cancer) (A549 line, ratio of IC50 to 5FdU), “more than three times”. In the data set on A549 (lung cancer), the “Cytotoxic activity class, A549 (lung cancer)” value was “(A) (IC50<4 μg/mL are generally assumed as active (abbreviated as A))”. In addition, the “Cytotoxic activity, IC50, A549 (lung cancer)” value with A549 (lung cancer) (setting [11]) amounted to 3.9 µg/mL. In the data set with KB (nasopharynx cancer) (setting [11]), the “Cytotoxic activity, IC50, KB (nasopharynx cancer)” value came out at 3.2 µg/mL. Also, the “times as high activity compared to 5FU” value in the data set on KB (nasopharynx cancer) (KB line, ratio of IC50 to 5FU) turned out to be 6.8 times. Moreover, in the data set on KB (nasopharynx cancer) (KB line, ratio of IC50 to 5FdU), the “times as high activity compared to 5FdU” value is 4.3 times.

(Values after patent US20160022668A1, “APPLICATION OF CINCHONA ALKALOID DERIVATIVES AS CYTOTOXIC COMPOUNDS” (ADAM MICKIEWICZ UNIVERSITY, priority 2014, published 2016).)
